Data as given in patent US10138211B2, “Crystalline forms of olaparib and manufacturing processes therefor” (ScinoPharm Taiwan, Ltd., priority 2016, dated 2018).
≈ marks a conversion by molar mass, not a printed value.

Key:
[1] = Solubility of olaparib at 60° C. in solvents; assay type: physicochemical
Protocol: (§1) As used herein, the term “solvent” refers to a liquid substance capable of dissolving olaparib at a concentration of at least about 2.5% (w/w) at 60° C. The term “anti-solvent” refers to a liquid substance which is not capable of dissolving olaparib at a concentration of […] about 2.5% (w/w) at 60° C.

[2] = Solubility of olaparib at room temperature in solvents; assay type: physicochemical; conditions: for solubility: organic solvent or mixture
Protocol: as §1

SMILES: O=C(c1cc(Cc2n[nH]c(=O)c3ccccc23)ccc1F)N1CCN(C(=O)C2CC2)CC1 [olaparib, 4-[(3-[(4-cyclopropylcarbonyl)piperazin-4-yl]carbonyl)-4-fluorophenyl]methyl(2H)phthalazin-1-one]
- Solubility of olaparib at 60° C. ([1]; ACN): <2.1 wt %
- Solubility of olaparib at 60° C. ([1]; Cyclohexane): <2.1 wt %
- Solubility of olaparib at 60° C. ([1]; DMAc): >23.5 wt %
- Solubility of olaparib at 60° C. ([1]; EA): <1.8 wt %
- Solubility of olaparib at 60° C. ([1]; EtOH): 2.6-2.9 wt %
- Solubility of olaparib at 60° C. ([1]; IPA): <2.1 wt %
- Solubility of olaparib at 60° C. ([1]; MeOH): 6.7-8.8 wt %
- Solubility of olaparib at 60° C. ([1]; Pyridine): >21.5 wt %
- Solubility of olaparib at 60° C. ([1]; THF): <1.9 wt %
- Solubility of olaparib at 60° C. ([1]; Toluene): <1.9 wt %
- Solubility of olaparib at 60° C. ([1]; Xylenes): <1.9 wt %
- solubility ([1]; acetonitrile (ACN), organic solvent or mixture, ACN): < 16.2 mg/mL
- solubility ([1]; ethanol (EtOH), organic solvent or mixture, EtOH): 21 to 23 mg/mL (≈ 48.3 to 52.9 mM)
- solubility ([1]; isopropanol (IPA), organic solvent or mixture, IPA): < 16.2 mg/mL
- solubility ([1]; methanol (MeOH), organic solvent or mixture, MeOH): 53 to 70 mg/mL (≈ 122 to 161 mM)
- Solubility of olaparib at 60° C. ([1]; n-butanol): <2.1 wt %
- Solubility of olaparib at 60° C. ([1]; n-heptane): <2.4 wt %
- solubility ([1]; organic solvent or mixture, Cyclohexane): < 16.2 mg/mL
- solubility ([1]; organic solvent or mixture, DMAc): > 220 mg/mL
- solubility ([1]; organic solvent or mixture, EA): < 16.2 mg/mL
- solubility ([1]; organic solvent or mixture, Pyridine): > 210 mg/mL
- solubility ([1]; organic solvent or mixture, THF): < 16.9 mg/mL
- solubility ([1]; organic solvent or mixture, Toluene): < 16.9 mg/mL
- solubility ([1]; organic solvent or mixture, Xylenes): < 16.2 mg/mL
- solubility ([1]; organic solvent or mixture, n-butanol): < 16.9 mg/mL
- solubility ([1]; organic solvent or mixture, n-heptane): < 16.2 mg/mL
- Solubility of olaparib at 60° C. ([1]; water): <1.6 wt %
- solubility ([1]; water): < 16.2 mg/mL
- Solubility of olaparib at room temperature ([2]; AcOH): >20.0 wt %
- Solubility of olaparib at room temperature ([2]; DMSO): >19.1 wt %
- solubility ([2]; acetic acid (AcOH), AcOH): > 210 mg/mL
- solubility ([2]; DMSO): > 210 mg/mL
